# Type: physicochemical
# Protocol: Moreover, the assay of Hexadecyl Treprostinil crystal Form I can be kept between about 98.0% to about 102.0% even after thirty-six months of placement under normal storage temperature (about 5° C. to about −20° C.). […] Moreover, the assay of Hexadecyl Treprostinil crystal Form II can be kept between about 98.0 to about 102.0% even after thirty-six months of placement under normal storage temperature (about 5° C. to about […]).
substance,measurement,value
Hexadecyl Treprostinil [Hexadecyl Treprostinil crystal Form I],stability (other crystalline forms or degraded products of impurities),no other crystalline forms or degraded products of impurities

# Source: US10781160B1, “Hexadecyl Treprostinil crystals and methods for preparation thereof” (CHIROGATE INTERNATIONAL INC., priority 2019, dated 2020)
